From ChEMBL document CHEMBL4130422, “Design, synthesis and biological evaluation of novel C-29 carbamate celastrol derivatives as potent and selective cytotoxic compounds” (Eur J Med Chem, 2017)
Activity calls are given as the source filed them. No cut-off for these calls is given here.

Columns and labels:
MIA PaCa-2 = assay: Antiproliferative activity against human MIAPaCa2 cells after 72 hrs by MTT assay; format: functional, cell-based; conditions: MIA PaCa-2, 72 h
A549 = assay: Antiproliferative activity against human A549 cells after 72 hrs by MTT assay; format: functional, cell-based; conditions: A549, 72 h
BJ = assay: Antiproliferative activity against human BJ cells after 72 hrs by MTT assay; format: cell-based
SK-OV-3 [1] = assay: Antiproliferative activity against human SKOV3 cells after 72 hrs by MTT assay; format: functional, cell-based; conditions: SK-OV-3, 72 h
HT-29 = assay: Antiproliferative activity against human HT-29 cells after 72 hrs by MTT assay; format: functional, cell-based; conditions: HT-29, 72 h
MCF7 = assay: Antiproliferative activity against human MCF7 cells after 72 hrs by MTT assay; format: functional, cell-based; conditions: MCF7, 72 h
MDA-MB-231 = assay: Antiproliferative activity against human MDA-MB-231cells after 72 hrs by MTT assay; format: functional, cell-based; conditions: MDA-MB-231, 72 h
SK-OV-3 [2] = assay: Induction of apoptosis in human SKOV3 cells assessed as decrease in procaspase-9 expression levels at IC50 after 72 hrs by Western blot analysis; format: functional, cell-based
SK-OV-3 [3] = assay: Induction of apoptosis in human SKOV3 cells assessed as increase in cleaved PARP expression levels at IC50 after 72 hrs by Western blot analysis; format: functional, cell-based
SK-OV-3 [4] = assay: Induction of apoptosis in human SKOV3 cells assessed as decrease in full-length PARP expression levels at IC50 after 72 hrs by Western blot analysis; format: functional, cell-based
SK-OV-3 [5] = assay: Induction of apoptosis in human SKOV3 cells assessed as increase in cleaved caspase-9 expression levels at IC50 after 72 hrs by Western blot analysis; format: functional, cell-based
SK-OV-3 [6] = assay: Induction of apoptosis in human SKOV3 cells assessed as cell shrinkage at IC50 after 48 hrs by Hoechst 33342 staining-based fluorescence microscopic method; format: functional
SK-OV-3 [7] = assay: Induction of apoptosis in human SKOV3 cells assessed as formation of apoptotic bodies at IC50 after 48 hrs by Hoechst 33342 staining-based fluorescence microscopic method; format: functional, cell-based
SK-OV-3 [8] = assay: Synergistic antiproliferative activity against human SKOV3 cells assessed as combination index at 0.5 uM after 72 hrs in presence of 32 uM carboplatin by MTT assay; format: functional
SK-OV-3 [9] = assay: Induction of apoptosis in human SKOV3 cells assessed as decrease in Bcl-2 expression levels at IC50 after 72 hrs by Western blot analysis; format: functional, cell-based
SK-OV-3 [10] = assay: Synergistic antiproliferative activity against human SKOV3 cells assessed as combination index at 2 uM after 72 hrs in presence of 128 uM carboplatin by MTT assay; format: functional
SK-OV-3 [11] = assay: Induction of apoptosis in human SKOV3 cells assessed as decrease in procaspase-8 expression levels at IC50 after 72 hrs by Western blot analysis; format: functional, cell-based
SK-OV-3 [12] = assay: Anticlonogenic activity against human SKOV3 cells assessed as reduction in colony formation efficiency treated for 24 hrs followed by incubation in drug free medium for 12 days by crystal violet staining-based assay; format: functional, cell-based
SK-OV-3 [13] = assay: Induction of apoptosis in human SKOV3 cells assessed as nuclear fragmentation at IC50 after 48 hrs by Hoechst 33342 staining-based fluorescence microscopic method; format: functional, cell-based
SK-OV-3 [14] = assay: Synergistic antiproliferative activity against human SKOV3 cells assessed as combination index at 0.125 uM after 72 hrs in presence of 8 uM carboplatin by MTT assay; format: functional
SK-OV-3 [15] = assay: Cell cycle arrest in human SKOV3 cells at IC50 at 24 to 72 hrs by propidium iodide staining-based FACS analysis; format: functional
SK-OV-3 [16] = assay: Induction of apoptosis in human SKOV3 cells assessed as increase in cleaved caspase-8 expression levels at IC50 after 72 hrs by Western blot analysis; format: functional, cell-based
SK-OV-3 [17] = assay: Synergistic antiproliferative activity against human SKOV3 cells assessed as combination index at 0.25 uM after 72 hrs in presence of 16 uM carboplatin by MTT assay; format: functional
SK-OV-3 [18] = assay: Induction of apoptosis in human SKOV3 cells assessed as increase in cleaved caspase-3 expression levels at IC50 after 72 hrs by Western blot analysis; format: functional, cell-based
SK-OV-3 [19] = assay: Induction of apoptosis in human SKOV3 cells at IC50 by Annexin V-FITC/propidium iodide double-staining-based FACS analysis; format: functional, cell-based; conditions: TDE = time-dependent effect
SK-OV-3 [20] = assay: Synergistic antiproliferative activity against human SKOV3 cells assessed as combination index at 1 uM after 72 hrs in presence of 64 uM carboplatin by MTT assay; format: functional
SK-OV-3 [21] = assay: Induction of apoptosis in human SKOV3 cells assessed as decrease in procaspase-3 expression levels at IC50 after 72 hrs by Western blot analysis; format: functional, cell-based
SK-OV-3 [22] = assay: Induction of apoptosis in human SKOV3 cells assessed as increase in Bid expression levels at IC50 after 72 hrs by Western blot analysis; format: functional, cell-based
SK-OV-3 [23] = assay: Induction of apoptosis in human SKOV3 cells assessed as early apoptotic cells at IC50 after 72 by Annexin V-FITC/propidium iodide double-staining-based FACS analysis (reference value: 4.5%); format: functional
SK-OV-3 [24] = assay: Induction of apoptosis in human SKOV3 cells assessed as increase in Bax expression levels at IC50 after 72 hrs by Western blot analysis; format: functional, cell-based
SK-OV-3 [25] = assay: Induction of apoptosis in human SKOV3 cells assessed as nuclear condensation at IC50 after 48 hrs by Hoechst 33342 staining-based fluorescence microscopic method; format: functional, cell-based

SMILES: COC(=O)N[C@]1(C)CC[C@]2(C)CC[C@]3(C)C4=CC(=O)c5c(cc(O)c(O)c5C)[C@]4(C)CC[C@@]3(C)[C@@H]2C1
- IC50 (MIA PaCa-2): 6.5 µM
- IC50 (A549): 6.53 µM
- IC50 (BJ): > 30 µM
- IC50 (SK-OV-3 [1]): 7.98 µM

SMILES: COC(=O)N[C@]1(C)CC[C@]2(C)CC[C@]3(C)C4=CC(=O)c5c(cc(OC)c(O)c5C)[C@]4(C)CC[C@@]3(C)[C@@H]2C1
- IC50 (MIA PaCa-2): > 10 µM
- IC50 (A549): > 10 µM

SMILES: COC(=O)N[C@]1(C)CC[C@]2(C)CC[C@]3(C)C4=CC=C5C(=CC(=O)C(O)=C5C)[C@]4(C)CC[C@@]3(C)[C@@H]2C1
- IC50 (MIA PaCa-2): 0.58 µM
- IC50 (A549): 1.74 µM

SMILES: CC(=O)Oc1cc2c(c(C)c1OC(C)=O)C(=O)C=C1[C@@]2(C)CC[C@@]2(C)[C@@H]3C[C@](C)(C(N)=O)CC[C@]3(C)CC[C@]12C
- IC50 (MIA PaCa-2): 0.36 µM
- IC50 (A549): 1.27 µM

SMILES: Cc1c(O)c(O)cc2c1CC=C1[C@@]2(C)CC[C@@]2(C)[C@@H]3C[C@](C)(C(=O)O)CC[C@]3(C)CC[C@]12C [DIHYDROCELASTROL]
- IC50 (MIA PaCa-2): 0.72 µM
- IC50 (A549): 3.15 µM

SMILES: CCOC(=O)N[C@]1(C)CC[C@]2(C)CC[C@]3(C)C4=CC(=O)c5c(cc(OC)c(OC)c5C)[C@]4(C)CC[C@@]3(C)[C@@H]2C1
- IC50 (MIA PaCa-2): > 10 µM
- IC50 (A549): > 10 µM

SMILES: CC(=O)Oc1cc2c(c(C)c1OC(C)=O)CC=C1[C@@]2(C)CC[C@@]2(C)[C@@H]3C[C@](C)(C(=O)O)CC[C@]3(C)CC[C@]12C
- IC50 (MIA PaCa-2): 0.56 µM
- IC50 (A549): 2.21 µM

SMILES: CC1=C(O)C(=O)C=C2C1=CC=C1[C@@]2(C)CC[C@@]2(C)[C@@H]3C[C@](C)(NC(=O)OCC(C)(C)CO)CC[C@]3(C)CC[C@]12C
- IC50 (MIA PaCa-2): 1 µM
- IC50 (A549): 1.58 µM

SMILES: CC(=O)Oc1cc2c(c(C)c1OC(C)=O)C(=O)C=C1[C@@]2(C)CC[C@@]2(C)[C@@H]3C[C@](C)(C=O)CC[C@]3(C)CC[C@]12C
- IC50 (MIA PaCa-2): 0.38 µM
- IC50 (A549): 2.77 µM

SMILES: CC1=C(O)C(=O)C=C2C1=CC=C1[C@@]2(C)CC[C@@]2(C)[C@@H]3C[C@](C)(N=C=O)CC[C@]3(C)CC[C@]12C
- IC50 (MIA PaCa-2): 0.53 µM
- IC50 (A549): 2.47 µM

SMILES: CC(=O)Oc1cc2c(c(C)c1OC(C)=O)CC=C1[C@@]2(C)CC[C@@]2(C)[C@@H]3C[C@](C)(N=C=O)CC[C@]3(C)CC[C@]12C
- IC50 (MIA PaCa-2): 1.41 µM
- IC50 (A549): 2.89 µM

SMILES: CCCOC(=O)N[C@]1(C)CC[C@]2(C)CC[C@]3(C)C4=CC=C5C(=CC(=O)C(O)=C5C)[C@]4(C)CC[C@@]3(C)[C@@H]2C1
- IC50 (MIA PaCa-2): 0.4 µM
- IC50 (A549): 1 µM

SMILES: CC(=O)Oc1cc2c(c(C)c1OC(C)=O)C(=O)C=C1C2(C)CC[C@@]2(C)[C@@H]3C[C@](C)(N=C=O)CC[C@]3(C)CC[C@]12C (single isomer, unassigned)
- IC50 (MIA PaCa-2): > 10 µM
- IC50 (A549): > 10 µM

SMILES: CC1=C(O)C(=O)C=C2C1=CC=C1[C@@]2(C)CC[C@@]2(C)[C@@H]3C[C@](C)(C(=O)O)CC[C@]3(C)CC[C@]12C [CELASTROL]
- IC50 (MIA PaCa-2): 0.46 µM
- IC50 (A549): 1.56 µM
- IC50 (BJ): 2.74 µM
- IC50 (HT-29): 1.28 µM
- IC50 (MCF7): 1.35 µM
- IC50 (SK-OV-3 [1]): 1.16 µM
- IC50 (MDA-MB-231): 1.32 µM

SMILES: CCOC(=O)N[C@]1(C)CC[C@]2(C)CC[C@]3(C)C4=CC(=O)c5c(cc(O)c(O)c5C)[C@]4(C)CC[C@@]3(C)[C@@H]2C1
- IC50 (MIA PaCa-2): > 10 µM
- IC50 (A549): > 10 µM

SMILES: CCOC(=O)N[C@]1(C)CC[C@]2(C)CC[C@]3(C)C4=CC=C5C(=CC(=O)C(O)=C5C)[C@]4(C)CC[C@@]3(C)[C@@H]2C1
- IC50 (MIA PaCa-2): 0.78 µM
- IC50 (A549): 1.93 µM

SMILES: COC(=O)N[C@]1(C)CC[C@]2(C)CC[C@]3(C)C4=CC(=O)c5c(cc(OC(C)=O)c(OC(C)=O)c5C)[C@]4(C)CC[C@@]3(C)[C@@H]2C1
- Activity (SK-OV-3 [2]): inactive
- Activity (SK-OV-3 [3]): Active
- Activity (SK-OV-3 [4]): Active
- Activity (SK-OV-3 [5]): inactive
- IC50 (MIA PaCa-2): 0.33 µM
- Activity (SK-OV-3 [6]): Active
- Activity (SK-OV-3 [7]): Active
- CI (SK-OV-3 [8]): 0.6273
- Activity (SK-OV-3 [9]): inactive
- CI (SK-OV-3 [10]): 1.076
- Activity (SK-OV-3 [11]): Active
- IC50 (A549): 0.88 µM
- IC50 (BJ): 3.68 µM
- Activity (SK-OV-3 [12]): Dose-dependent effect
- Activity (SK-OV-3 [13]): Active
- CI (SK-OV-3 [14]): 1.112
- Activity (SK-OV-3 [15]): inactive
- IC50 (HT-29): 1.54 µM
- Activity (SK-OV-3 [16]): Active
- CI (SK-OV-3 [17]): 0.9285
- Activity (SK-OV-3 [18]): Active
- Activity (SK-OV-3 [19]): Tde
- IC50 (MCF7): 1.68 µM
- CI (SK-OV-3 [20]): 0.7863
- Activity (SK-OV-3 [21]): Active
- Activity (SK-OV-3 [22]): inactive
- IC50 (SK-OV-3 [1]): 0.54 µM
- IC50 (MDA-MB-231): 1.35 µM
- Activity (SK-OV-3 [23]): 29.9%
- Activity (SK-OV-3 [24]): inactive
- Activity (SK-OV-3 [25]): Active

SMILES: CC(=O)Oc1cc2c(c(C)c1OC(C)=O)C(=O)C=C1[C@@]2(C)CC[C@@]2(C)[C@@H]3C[C@](C)(CO)CC[C@]3(C)CC[C@]12C
- IC50 (MIA PaCa-2): 0.48 µM
- IC50 (A549): 1.87 µM

SMILES: CCCCCOC(=O)N[C@]1(C)CC[C@]2(C)CC[C@]3(C)C4=CC=C5C(=CC(=O)C(O)=C5C)[C@]4(C)CC[C@@]3(C)[C@@H]2C1
- IC50 (MIA PaCa-2): 0.32 µM
- IC50 (A549): 1.05 µM
- IC50 (BJ): 0.88 µM
- IC50 (HT-29): 1.02 µM
- IC50 (MCF7): 0.59 µM
- IC50 (SK-OV-3 [1]): 0.45 µM
- IC50 (MDA-MB-231): 0.52 µM

SMILES: CC(=O)Oc1cc2c(c(C)c1OC(C)=O)C(=O)C=C1C2(C)CC[C@@]2(C)[C@@H]3C[C@](C)(C(=O)O)CC[C@]3(C)CC[C@]12C (single isomer, unassigned)
- IC50 (MIA PaCa-2): > 10 µM
- IC50 (A549): > 10 µM

SMILES: CC1=C(O)C(=O)C=C2C1=CC=C1[C@@]2(C)CC[C@@]2(C)[C@@H]3C[C@](C)(NC(=O)OCC(C)C)CC[C@]3(C)CC[C@]12C
- IC50 (MIA PaCa-2): 0.8 µM
- IC50 (A549): 2.23 µM
